{"source": "patent US6790936B1", "about": "“CAI resistance proteins and uses thereof” (The United States of America as represented by the …, priority 1994, dated 2004)", "format_in_all_cases": "cell-based, human", "key": {"OVCAR3 cells": {"test_system": "OVCAR3 cells", "test": "Culture of CAI resistant cells (OVCAR3)", "conditions": "cells chronically resistant to 10 μM and 20 μM CAI", "method": "(§1) Low passage (passage 13) parental human melanoma cells (A2058), and human ovarian cancer cells (OVCAR3) were cultured in Dulbecco's Modified Eagles medium (DMEM) supplemented with 10% fetal calf serum (FCS) and pen/strep (penicillin and streptomycin). Over a period of 24 to 30 months, the cells were incubated with increasing concentrations of CAI starting with 0.1 μM and reaching 45 μM. The CAI, obtained from the Developmental Therapeutics Program of the National Cancer Institute, was dissolved in DMSO and aliquots were stored at −70° C. until used. The diluted CAI was added directly into the media as required. Continuous selective pressure with CAI was maintained throughout culture and was maintained throughout all experiments. OVCAR3 cells chronically resistant to 10 μM and 20 μM CAI were also established."}, "[1]": {"test_system": "A2058 CAI resistant cells", "test": "Culture of CAI resistant cells (A2058)", "conditions": "chronic culture under continuous CAI, 10, 20, 30 and 40 μM", "method": "as §1, with “experiments.” for “experiments. OVCAR3 cells chronically resistant to 10 μM and 20 μM CAI were also established.”\nNo overt differences in morphology of the A2058 CAI resistant cells was observed."}, "CAIR-1": {"test_system": "CAIR-1", "test": "Northern analysis of CAIR-1 expression in A2058-20R versus parental A2058 cells", "conditions": "A2058-20R (20 μM CAI) vs parental A2058 total RNA, compared to GAPDH housekeeping gene control", "source_text": "The subtracted probe was first hybridized against a Northern blot of total RNA from parental A2058 cells and CAI resistant A2058-20R cells. Increased expression of a number of transcripts was seen (FIG. 1, upper left panel). Re-hybridization of the blot with radiolabeled GAPDH as a housekeeping gene confirmed the […] (FIG. 1, lower left panel).\nA cDNA library was constructed from A2058-20R cells by Stratagene (La Jolla, Calif., USA). The library was probed using standard approaches (Id.) and the positive probes were plaque purified. Forty-one clones were selected and 35 were determined to be nonoverlapping by restriction digest. Fifteen were randomly selected for determination of their expression by Northern analysis. Inserts were purified by low melting point agarose gel electrophoresis and then radiolabeled with standard random primer conditions (Amersham, Little Chalfont, Bucks, United Kingdom) and hybridized with a Northern of parental (wildtype) total RNA and RNA from A2058-20R cells. […] The CAIR-1 cDNA (clone 21DBB insert) was sequenced using standard dideoxy-sequencing (SequenaseII kit) with 35S-dATP label. The cDNA sequence is shown in Seq. Id No. 1."}}, "data": [{"smiles": "NC(=O)c1nnn(Cc2cc(Cl)c(C(=O)c3ccc(Cl)cc3)c(Cl)c2)c1N", "note": "[CAI, Carboxyamido-triazole]", "values": [{"measurement": "growth rates of OVCAR3 cells in the CAI treatments", "setting": "OVCAR3 cells", "result": "slightly lower growth rates"}, {"measurement": "growth rate of A2058 CAI resistant cells", "setting": "[1]", "result": "not attenuated until the 40 μM treatment in which it decreased somewhat"}, {"measurement": "increased expression of CAIR-1 cDNA (clone 21DBB) in response to culture with CAI", "setting": "CAIR-1", "result": 3.8, "unit": "fold"}]}]}
